This is an account of results in patent US7935335B2, “Strains belonging to the genus Paenibacillus and method of controlling plant disease by using these strains or culture thereof” (Kaken Pharmaceutical Co., Ltd., priority 2004, dated 2011).

SMILES strings stand for the structures.

Test [1] concerns parsley cultured cells. Kind of test: Activity of inducing disease resistance: elicitor responsiveness of parsley cultured cells, phytoalexin detection by fluorescence. In kind it is cell-based. The conditions noted are these: 2.5 μM. The protocol: The activity of inducing disease resistance in plant of compound 1 and compound 2 according to the present invention was also evaluated according to the method of Siegrist, J. et al. The results are shown in Table 9.
The activity of inducing disease resistance in plant of each of compound 1 and compound 2 was evaluated in the same manner as in Evaluation Example 1 by adopting the method practiced in Evaluation Example 1, i.e., the method in which the elicitor responsiveness of parsley cultured cells was measured by the detection of phytoalexin using fluorescence.
The activity of inducing resistance to plant diseases of each of compound 3 and compound 4 was evaluated in the same manner as in Evaluation Example 1 by adopting the method practiced in Evaluation Example 1, i.e., the method in which the elicitor responsiveness of parsley cultured cells was measured by the detection of phytoalexin using fluorescence.

Test [2] has as its system strawberry anthracnose fungus (Glomerella cigulata). The experiment in a line: Test Example 4: control effect of purified spores on strawberry anthracnose. In kind it is in vivo. To be noted: 20 ppm. Here is the method:
Strawberry seedlings (cultivar: Akihime) cultivated in plastic pots and having about 10 developed leaflets were subjected to foliage application treatment with a spore preparation sample of strain BS-0105 obtained by formulating the bacterium of the present invention produced by the method described in Production Example 5, by the method described in Formulation Example 2, so that the proportion of cells might be 2×10^7 CFU/mL. After the pots were allowed to stand in a dark moist chamber at 25° C. for 24 hours and then in a glass house at 25° C. for 3 days (or 1 day in the case of Amister 20 flowable), the plants were inoculated with a suspension of strawberry anthracnose fungus conidia in distilled water (Glomerella cigulata, 2×10^6 spores/ml) by spraying. The pots were allowed to stand in a dark moist chamber at 25° C. for 24 hours and then in a glass house at 25° C. for 14 days to cause the disease. The disease severity was calculated by the following equation and the protective value was calculated from the disease severity values by the following equation to make a comparison with respect to control effect. […]

The test system of test [3] is cucumber anthracnose fungus (Colletotrichum orbiculare). Kind of test: Test Example 2: control effect of purified spores on cucumber anthracnose. The conditions noted are these: 20 ppm. In kind it is in vivo. From the text:
Each of plastic pots was filled with horticultural compost and sown with cucumber (cultivar: 15 Suyo), followed by growing in a greenhouse for 20 days. The cucumber young seedling having a developed second true leaf was subjected to foliage application treatment with a spore preparation sample of strain BS-0105 obtained by formulating the bacterium of the present invention produced by the method described in each of Production Examples 4, 5, 6 and 7, by the method described in Formulation Example 1, so that the proportion of cells might be 2×10^7 CFU/mL. After the pots were allowed to stand in a dark moist chamber at 25° C. for 24 hours and then in a glass house at 25° C. for 4 days, the plants were inoculated with a suspension of cucumber anthracnose fungus conidia in distilled water (Colletotrichum orbiculare, 1×10^6 spores/ml) by spraying. The pots were allowed to stand in a dark moist chamber at 25° C. for 24 hours and then in a glass house at 25° C. for 7 days to cause the disease. Lesions in each leaf were counted and the protective value was calculated from the number of the lesions by the following equation to make a comparison with respect to control effect. Protective value={1−(number of lesions on treated plot/number of lesions on untreated plot)}×100

Test [4] has as its system parsley cultured cells. The experiment in a line: Activity of inducing disease resistance: elicitor responsiveness of parsley cultured cells, phytoalexin detection by fluorescence. In kind it is cell-based. The conditions noted are these: Evaluation Example 1; elicitor treatment Yes; 2.5 μM.
Test [5] concerns cucumber anthracnose fungus (Colletotrichum orbiculare). Kind of test: Test Example 1: control effect of a culture of each strain on cucumber anthracnose. In kind it is in vivo. To be noted: cucumber first true leaf; 20 ppm. The protocol:
Each of plastic pots was filled with horticultural compost and sown with cucumber (cultivar: Suyo), followed by growing in a greenhouse for 20 days. The cotyledon of the cucumber young seedling having a developed first true leaf was coated with 0.1 mL of whole culture of each of strains BS-0048, BS-0074, BS-0105 and BS-0277 prepared by the method described in Production Example 1. After the pots were allowed to stand in a glass house at 25° C. for 3 days, the plants were inoculated with a suspension of cucumber anthracnose fungus conidia in distilled water (Colletotrichum orbiculare, 1×10^6 spores/ml) by spraying. The pots were allowed to stand in a dark moist chamber at 25° C. for 24 hours and then in a glass house at 25° C. for 7 days to cause the disease. Lesions in the first true leaf of each seedling were counted and the protective value was calculated from the number of the lesions by the following equation to make a comparison with respect to control effect. Protective value={1−(number of lesions on treated plot/number of lesions on untreated plot)}×100

Test [6] deals with cucumber bacterial blight bacterium (Pseudomonas syringae pv. lachrymans). Kind of test: Evaluation Example 3: control effect on cucumber bacterial blight, plant foot drench. In kind it is in vivo. The conditions noted are these: 20 ppm. The protocol: Each of plastic pots was filled with horticultural compost and sown with cucumber (cultivar: Suyo), followed by growing in a greenhouse for 20 days. The cucumber young seedling having a developed second true leaf was subjected to plant foot drench treatment with the formulation obtained in the above-mentioned preparation example, in a proportion of 5 mL per seedling. After the pots were allowed to stand in a glass house at 25° C. for 3 days, the plants were inoculated with a suspension (1×10^8 CFU/mL) of cucumber bacterial blight bacterium (Pseudomonas syringae pv. lachrymans) in distilled water by spraying. The pots were allowed to stand in a dark moist chamber at 25° C. for 24 hours and then in a glass house at 25° C. for 7 days to cause the disease. Lesions in each leaf were counted and the protective value was calculated from the number of the lesions by the following equation to make a comparison with respect to control effect. Protective value={1−(number of lesions on treated plot/number of lesions on untreated plot)}×100

For the compound `CSC(=O)c1cccc2nnsc12` [Acibenzolar-S-methyl, S-methyl 1,2,3-benzothiazole-7-carboxylate], the Relative fluorescence in the test with parsley cultured cells [1] (Evaluation Example 6, elicitor treatment No) amounted to 86.9; in the test with parsley cultured cells [1] (Evaluation Example 6, elicitor treatment Yes), 664.8; with parsley cultured cells [1] (Evaluation Example 7, elicitor No) it was 0.8; in the test on parsley cultured cells [1] (Evaluation Example 7, elicitor Yes), 377.5; with parsley cultured cells [4] it was 754.3. Moreover, the Disease severity in test [2] was 10.9 b. The Protective value in test [2] was 85.1; in test [5], 96.7; in test [6], 78.8. In addition, in test [3], the “First true leaf Number of lesions per leaf” value is on record as 0. The “First true leaf Protective value” in test [3] is 100. For the same compound, the “Second true leaf Number of lesions per leaf” value in test [3] stood at 5.5. Besides, in test [3], the “Second true leaf Protective value” is 99. Besides, the Number of lesions in test [5] was 5. Moreover, the “Number of lesions per leaf” value in test [6] was 137.8 b.
